Results on 1 compound are retold here after paper PMC12133982, “Predominant T-cell epitopes of SARS-CoV-2 restricted by multiple prevalent HLA-B and HLA-C allotypes in Northeast Asia” (Frontiers in Immunology, 2025).

One test has as its target HLA-B5201 (Homo sapiens, UniProt P01889, A329T/A93T/A95T/C349S/D138N/D201E/D98Y/E187L/E204Q/E69T/G107R/I218V/K202T/L105A/L119W/N104I/N87E/Q94N/R106L/R155S/R180L/S101N/S121T/S35A/S48A/V306I/V36M/Y195H/Y91S). Description: Competitive peptide binding assay, CIR-B5201. The settings on record: HMy2.CIR-B5201 cells, reference Cy5-[…], class from inhibition at 5 and 15 μM, flow cytometry MFI; read-out: Binding affinity with HLA-B5201. The method, then: (§1) Then, competitive peptide binding assays were performed.
In general terms: In flow cytometry, cells or beads pass a laser one at a time.

In the next test the target is HLA-B4801 (Homo sapiens, UniProt P01889, A269T/A93T/A95T/D138N/D98Y/E176V/N87E/Q94N/R180L/T167S/W171L/Y91S). Description: Competitive peptide binding assay, CIR-B4801. The settings on record: HMy2.CIR-B4801 cells, reference Cy5-[…], class from inhibition at 5 and 15 μM, flow cytometry MFI; read-out: Binding affinity with HLA-B4801. The protocol: as §1
A further test has as its target HLA-B4601 (Homo sapiens, UniProt P01889, A329T/A93R/C349S/D201E/E100V/E187L/E204Q/E69M/E70A/I90K/K202T/N87E/R155S/R180W/S121R/S35A/S48A/V306I/V36M/Y140S). Description: Competitive peptide binding assay, CIR-B4601. The settings on record: HMy2.CIR-B4601 cells, reference Cy5-[…], class from inhibition at 5 and 15 μM, flow cytometry MFI; read-out: Binding affinity with HLA-B4601. The method, then: as §1

Another test has as its target HLA-B1502 (Homo sapiens, UniProt P01889, A329T/A93T/A95T/C349S/D201E/D98Y/E187L/E204Q/E69M/E70A/H137Y/K202T/L119I/Q94N/R155S/R180L/S121R/S35A/S48A/T118I/V306I/V36M/Y140S/Y91S). Description: Competitive peptide binding assay, CIR-B1502. The settings on record: HMy2.CIR-B1502 cells, reference Cy5-[…], class from inhibition at 5 and 15 μM, flow cytometry MFI; read-out: Binding affinity with HLA-B1502. The method, then: as §1

The target in another test is HLA-B1302 (Homo sapiens, UniProt P01889, A65T/A93T/A95T/D138N/D201E/D98Y/E176V/E204Q/E69M/E70A/G107R/K202T/L105A/L119W/N104T/N87E/Q94N/R106L/R155S/R169L/R180L/S101N/S121T/S35A/S48T/V127L/V36M/Y140L/Y91S). Description: Competitive peptide binding assay, CIR-B1302. The settings on record: HMy2.CIR-B1302 cells, reference Cy5-MMWYWGPSL, class from inhibition at 5 and 15 μM, flow cytometry MFI; read-out: Binding affinity with HLA-B1302. The protocol:
as §1

The next test has as its target T1, HLA-B0702 (Homo sapiens, UniProt P01889).
T1 construct: expressed in transfected cells; host or cells: HMy2.CIR
Description: Competitive peptide binding assay, CIR-B0702. The settings on record: HMy2.CIR-B0702 cells, reference Cy5-[…], class from inhibition at 5 and 15 μM, flow cytometry MFI. The protocol:
as §1

Another test concerns the target HLA-B5101 (Homo sapiens, UniProt P01889, A329T/A93T/A95T/C349S/D138N/D201E/D98Y/E187L/E204Q/E69T/G107R/I218V/K202T/L105A/L119W/N104I/Q94N/R106L/R155S/R180L/S101N/S121T/S35A/S48A/V306I/V36M/Y195H/Y91F). Description: Competitive peptide binding assay, CIR-B5101. As to conditions: HMy2.CIR-B5101 cells, reference Cy5-[…], class from inhibition at 5 and 15 μM, flow cytometry MFI; read-out: Binding affinity with HLA-B5101. The protocol:
as §1

The target of a further test is HLA-B5801 (Homo sapiens, UniProt P01889, A329T/C349S/D201E/D98Y/E176V/E187L/E204Q/E69T/G107R/I218V/I90N/K202T/L105A/L119I/N104I/N87E/Q89R/Q94S/R106L/R155S/R180L/R86G/S101N/S121R/S35A/S48A/T118I/V127L/V306I/V36M/Y140S/Y91M). Description: Competitive peptide binding assay, CIR-B5801. The settings on record: HMy2.CIR-B5801 cells, reference Cy5-[…], class from inhibition at 5 and 15 μM, flow cytometry MFI; read-out: Binding affinity with HLA-B5801. The method, then:
as §1

The target in a further test is HLA-B1501 (Homo sapiens, UniProt P01889, A329T/A93T/A95T/C349S/D201E/D98Y/E187L/E204Q/E69M/E70A/K202T/N87E/Q94N/R155S/R180W/S121R/S35A/S48A/V306I/V36M/Y140S/Y91S). Description: Competitive peptide binding assay, CIR-B1501. As to conditions: HMy2.CIR-B1501 cells, reference Cy5-[…], class from inhibition at 5 and 15 μM, flow cytometry MFI; read-out: Binding affinity with HLA-B1501. The method, then:
as §1

pIC50: −log10 of the molar value. Peptide text beside a SMILES is read from it.

For the compound `CC[C@H](C)[C@H](NC(=O)CNC(=O)[C@H](CC(=O)O)NC(=O)[C@H](CCCCN)NC(=O)[C@H](CC(N)=O)NC(=O)[C@H](C)NC(=O)CN)C(=O)N[C@H](C(=O)N[C@@H](Cc1c[nH]c2ccccc12)C(=O)O)[C@@H](C)CC` [Epitope Y301] (H-GANKDGIIW-OH; N-terminus and C-terminus assumed), the pIC50 is under 4.82 at HLA-B5201; under 4.82 on HLA-B4801; 4.82 to 5.30 on HLA-B4601; under 4.82 at HLA-B1502; under 4.82 on HLA-B1302; 4.82 to 5.30 at HLA-B0702. Further, the pIC50 is under 4.82 on HLA-B5101, over 5.30 at HLA-B5801 and under 4.82 on HLA-B1501.
